Read-outs that look alike come from different tables or passages of the source.
Target: T1, F508del (Homo sapiens, UniProt P13569, DEL508-508)
T1 construct: expressed in transfected cells
Test: Protocol 2: FRET membrane potential optical assay (VIPR), identification of correction compounds
Assay type: cell-based
Outline: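 Single-addition HTS format: F508del-expressing NIH3T3 cells pre-incubated 16 hrs at 37° C. ± compound, with 27° C. culture as positive control. Channel activation by forskolin 10 μM and genistein 20 μM upon switch to gluconate bath, pH 7.4; read-out is FRET-based depolarization signal.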

[1] = Table 3, compounds of Table 1 as modulators of CFTR activity, protocol not stated
[2] = F508del CFTR modulator activity, compounds of Table 1, read-out: EC30

T1 sequence (P13569 with tags, fused parts or gaps DEL508-508): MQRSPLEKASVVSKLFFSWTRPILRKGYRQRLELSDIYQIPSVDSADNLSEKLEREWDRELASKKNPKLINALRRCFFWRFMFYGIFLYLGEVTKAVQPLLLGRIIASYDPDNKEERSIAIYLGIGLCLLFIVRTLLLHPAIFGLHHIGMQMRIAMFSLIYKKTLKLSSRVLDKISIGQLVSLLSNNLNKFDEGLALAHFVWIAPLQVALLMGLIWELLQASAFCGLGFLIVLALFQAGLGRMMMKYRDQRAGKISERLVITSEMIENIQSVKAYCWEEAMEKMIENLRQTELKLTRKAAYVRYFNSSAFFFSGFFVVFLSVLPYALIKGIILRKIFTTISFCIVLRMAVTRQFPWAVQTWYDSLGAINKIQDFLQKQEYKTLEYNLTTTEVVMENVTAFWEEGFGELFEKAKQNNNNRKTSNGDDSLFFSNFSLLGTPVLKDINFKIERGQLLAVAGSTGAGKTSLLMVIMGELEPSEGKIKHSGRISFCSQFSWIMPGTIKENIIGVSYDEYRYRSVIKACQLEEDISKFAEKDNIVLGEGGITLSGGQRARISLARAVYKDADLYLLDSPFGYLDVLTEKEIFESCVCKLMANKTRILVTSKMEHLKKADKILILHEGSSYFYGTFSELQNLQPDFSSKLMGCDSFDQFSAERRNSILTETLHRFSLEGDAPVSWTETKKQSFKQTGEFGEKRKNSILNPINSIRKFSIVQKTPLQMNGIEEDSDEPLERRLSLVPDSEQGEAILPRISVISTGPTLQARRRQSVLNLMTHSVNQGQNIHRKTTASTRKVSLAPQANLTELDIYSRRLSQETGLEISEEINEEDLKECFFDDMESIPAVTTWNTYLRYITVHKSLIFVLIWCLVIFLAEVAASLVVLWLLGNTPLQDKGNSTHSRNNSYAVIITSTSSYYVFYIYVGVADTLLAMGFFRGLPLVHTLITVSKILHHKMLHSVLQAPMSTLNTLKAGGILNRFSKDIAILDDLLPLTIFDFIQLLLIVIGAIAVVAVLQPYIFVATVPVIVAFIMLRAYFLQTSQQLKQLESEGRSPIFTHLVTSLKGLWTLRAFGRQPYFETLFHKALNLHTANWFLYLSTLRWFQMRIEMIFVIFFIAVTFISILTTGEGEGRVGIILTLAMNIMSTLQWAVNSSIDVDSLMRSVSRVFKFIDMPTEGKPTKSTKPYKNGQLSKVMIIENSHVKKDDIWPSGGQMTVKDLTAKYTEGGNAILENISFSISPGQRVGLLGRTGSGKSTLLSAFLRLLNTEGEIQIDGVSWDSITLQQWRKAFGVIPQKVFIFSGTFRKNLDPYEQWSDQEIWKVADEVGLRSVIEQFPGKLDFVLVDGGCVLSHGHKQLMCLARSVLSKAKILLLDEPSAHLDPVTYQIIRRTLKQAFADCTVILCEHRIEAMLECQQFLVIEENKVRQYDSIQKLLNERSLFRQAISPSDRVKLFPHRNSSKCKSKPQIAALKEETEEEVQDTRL

SMILES	EC30 [1]	EC30 [2] [µM]
Cc1ccc(Oc2nc(-c3cnn(CC(C)C)c3)ccc2C(=O)NS(=O)(=O)c2cccc(N)n2)c(C)c1 [Compound 381, N-[(6-amino-2-pyridyl)sulfonyl]-2-(2,4-dimethylphenoxy)-6-(1-isobutylpyrazol-4-yl)pyridine-3-carboxamide]	++ (“++” means between 3 uM and 10 uM)	
Cc1cccc(C)c1Cn1nc(-c2ccc(N(C)C)cc2)cc1C(=O)NS(=O)(=O)c1ccccc1 [Compound 76, N-(benzenesulfonyl)-5-(4-dimethylaminophenyl)-2-[(2,6-dimethylphenyl)methyl]pyrazole-3-carboxamide]	+++ (“+++” means <3 uM)	
Cc1cc(C)c(Cn2c(C(=O)NS(=O)(=O)c3cccc(N)c3)cc3c(F)cccc32)c(C)c1 [Compound 181, N-(3-aminophenyl)sulfonyl-4-fluoro-1-[(2,4,6-trimethylphenyl)methyl]indole-2-carboxamide]	+++ (“+++” means <3 uM)	
COc1ccc(-c2ccc(C(=O)NS(=O)(=O)c3cccc(N)n3)c(Oc3c(C)cc(C)cc3C)n2)cc1 [Compound 17, N-[(6-amino-2-pyridyl)sulfonyl]-6-(4-methoxyphenyl)-2-(2,4,6-trimethylphenoxy)pyridine-3-carboxamide]	+++ (“+++” means <3 uM)	
Cc1cccc(C)c1Cn1nc(-c2ccc(Cl)cc2)cc1C(=O)NS(=O)(=O)c1ccccc1 [Compound 28, N-(benzenesulfonyl)-5-(4-chlorophenyl)-2-[(2,6-dimethylphenyl)methyl]pyrazole-3-carboxamide]	+++ (“+++” means <3 uM)	
CC(C)COc1cc(F)cc(-c2ccc(C(=O)NS(=O)(=O)c3cccc(N)n3)c(N3C[C@@H]4CC[C@@H](C4)C3)n2)c1 [Compound 581, N-[(6-amino-2-pyridyl)sulfonyl]-2-[(1R,5S)-3-azabicyclo[3.2.1]octan-3-yl]-6-(3-fluoro-5-isobutoxy-phenyl)pyridine-3-carboxamide]	+++ (“+++” means <3 uM)	
CC(C)Oc1ccc(-c2ccc(C(=O)NS(=O)(=O)c3cccc(N)n3)c(N3CCCC(C(C)C)C3)n2)cn1 (stereo not drawn) [Compound 114, N-[(6-amino-2-pyridyl)sulfonyl]-6-(6-isopropoxy-3-pyridyl)-2-(3-isopropyl-1-piperidyl)pyridine-3-carboxamide]	+++ (“+++” means <3 uM)	
CC(C)COc1cc(F)cc(-c2ccc(C(=O)NS(=O)(=O)c3cccc(N)n3)c(N3CCCC3)n2)c1 [Compound 592, N-[(6-amino-2-pyridyl)sulfonyl]-6-(3-fluoro-5-isobutoxy-phenyl)-2-pyrrolidin-1-yl-pyridine-3-carboxamide]	+++ (“+++” means <3 uM)	
Cc1ccc(-c2nc(C(C)(C)C)ccc2C(=O)NS(=O)(=O)c2ccc(C#N)cc2)cc1 [Compound 288, 6-tert-butyl-N-(4-cyanophenyl)sulfonyl-2-(p-tolyl)pyridine-3-carboxamide]	+++ (“+++” means <3 uM)	
COc1ccc(-c2nc(C(C)(C)C)ccc2C(=O)NS(=O)(=O)c2cccc(N)c2)cc1 [Compound 550, N-(3-aminophenyl)sulfonyl-6-tert-butyl-2-(4-methoxyphenyl)pyridine-3-carboxamide]	++ (“++” means between 3 uM and 10 uM)	
Cc1cccc(C)c1Cn1nc(-c2ccc(N3CCCCC3)nc2)cc1C(=O)NS(=O)(=O)c1ccccc1 [Compound 329, N-(benzenesulfonyl)-2-[(2,6-dimethylphenyl)methyl]-5-[6-(1-piperidyl)-3-pyridyl]pyrazole-3-carboxamide]	+++ (“+++” means <3 uM)	

Continued, values first:

EC30 [1]	EC30 [2] [µM]	SMILES
	< 3	CCOCCOc1ncc(-c2ccc(C(=O)NS(=O)(=O)c3cccc(N)n3)c(N3C[C@@H](C)CC3(C)C)n2)cc1C [Compound 2404, N-[(6-amino-2-pyridyl)sulfonyl]-6-[6-(2-ethoxyethoxy)-5-methyl-3-pyridyl]-2-[(4S)-2,2,4-trimethylpyrrolidin-1-yl]pyridine-3-carboxamide]
	< 3	CC1CN(c2ncccc2C(=O)NS(=O)(=O)c2cccc(OCc3ccco3)n2)C(C)(C)C1 (stereo not drawn) [Compound 2308, N—[[6-(2-furylmethoxy)-2-pyridyl]sulfonyl]-2-(2,2,4-trimethylpyrrolidin-1-yl)pyridine-3-carboxamide]
++ (“++” means between 3 uM and 10 uM)		COc1ncccc1S(=O)(=O)NC(=O)C1(C)c2ccccc2CN1Cc1c(C)cc(C)cc1C (stereo not drawn) [Compound 765, N-[(2-methoxy-3-pyridyl)sulfonyl]-1-methyl-2-[(2,4,6-trimethylphenyl)methyl]isoindoline-1-carboxamide]
	< 3	CC1CN(c2ncccc2C(=O)NS(=O)(=O)c2cccc(NCc3cccc(F)c3F)n2)C(C)(C)C1 (stereo not drawn) [Compound 2640, N—[[6-[(2,3-difluorophenyl)methylamino]-2-pyridyl]sulfonyl]-2-(2,2,4-trimethylpyrrolidin-1-yl)pyridine-3-carboxamide]
+++ (“+++” means <3 uM)		Cc1cc(C)c(Oc2nc(-c3ccc(F)cc3O)ccc2C(=O)NS(=O)(=O)c2cccc(N)n2)c(C)c1 [Compound 622, N-[(6-amino-2-pyridyl)sulfonyl]-6-(4-fluoro-2-hydroxy-phenyl)-2-(2,4,6-trimethylphenoxy)pyridine-3-carboxamide]
+++ (“+++” means <3 uM)		Cc1cc(C)c(CN2CCc3ccccc3CC2C(=O)NS(=O)(=O)c2cc[nH]n2)c(C)c1 (stereo not drawn) [Compound 628, N-(1H-pyrazol-3-ylsulfonyl)-3-[(2,4,6-trimethylphenyl)methyl]-1,2,4,5-tetrahydro-3-benzazepine-4-carboxamide]
	< 3	CC1CN(c2nc(C(C)(C)C)ccc2C(=O)NS(=O)(=O)c2cccc(OCc3ccc4c(c3)OCO4)n2)C(C)(C)C1 (stereo not drawn) [Compound 2714]
	< 3	COc1ccc(Cl)cc1COc1cccc(S(=O)(=O)NC(=O)c2cccnc2N2CC(C)CC2(C)C)n1 (stereo not drawn) [Compound 2645, N—[[6-[(5-chloro-2-methoxy-phenyl)methoxy]-2-pyridyl]sulfonyl]-2-(2,2,4-trimethylpyrrolidin-1-yl)pyridine-3-carboxamide]
	< 3	CC1CN(c2ncccc2C(=O)NS(=O)(=O)c2cccc(NCc3cc(F)cc(F)c3)n2)C(C)(C)C1 (stereo not drawn) [Compound 2421, N—[[6-[(3,5-difluorophenyl)methylamino]-2-pyridyl]sulfonyl]-2-(2,2,4-trimethylpyrrolidin-1-yl)pyridine-3-carboxamide]
	< 3	C[C@@H]1CN(c2nc(-n3ccc(-c4ccccc4)n3)ccc2C(=O)NS(=O)(=O)c2cccnc2N)C(C)(C)C1 [Compound 2696]
+++ (“+++” means <3 uM)		CC(C)Oc1ccc(-c2ccc(C(=O)NS(=O)(=O)c3cccc(N)n3)c(N3CC[C@H](C)C3(C)C)n2)cn1 [Compound 557, N-[(6-amino-2-pyridyl)sulfonyl]-6-(6-isopropoxy-3-pyridyl)-2-[(3S)-2,2,3-trimethylpyrrolidin-1-yl]pyridine-3-carboxamide]
	< 3	CC1CN(c2ncccc2C(=O)NS(=O)(=O)c2cccc(OC3CC=CC3)n2)C(C)(C)C1 (stereo not drawn) [Compound 2317, N-[(6-cyclopent-3-en-1-yloxy-2-pyridyl)sulfonyl]-2-(2,2,4-trimethylpyrrolidin-1-yl)pyridine-3-carboxamide]
	< 3	C[C@@H]1CN(c2nc(-n3ccc(OCC4CC4)n3)ccc2C(=O)NS(=O)(=O)c2cccnc2N)C(C)(C)C1 [Compound 2691]
